Source: patent US6583150B1, “Pharmaceutical composition based on polyaromatic compounds” (Laboratorie L. Lafon, priority 1999, dated 2003)
pIC50: −log10 of the molar value. Where two headings read alike, the source gives them in different places.

How the values were obtained:
[1] = Determination of the maximum tolerated dose (MTD); format: in vivo; conditions: mouse, in vivo, ip; single intraperitoneal administration, survival over 14 days, B6D2F1/Jico mice
Procedure: (§1) The evaluation of the maximum tolerated dose was carried out on 4- to 6-week-old B6D2F1/Jico mice. […] The value of the MTD (expressed in mg/kg) is determined from observing the survival rate of the animals over a period of 14 days after a single administration of the product under consideration. The change in the weight of the animals is also monitored over this period.

U-373MG = assay: MTT cytotoxicity test, U-373MG; format: cell-based; conditions: Homo sapiens, U373 MG, U-373MG glioblastoma, 72 hours, read-out: concentrations flanking the IC50
Procedure: (§2) The influence of the compounds of formulae I and II on neoplastic cells was evaluated using the MTT calorimetric test. The principle of the MTT test is based on the mitochondrial reduction by metabolically active live cells of the yellow-colored product MTT (3-(4,5-dimethylthiazol-2-yl)-2,5-diphenyltetrazolium bromide) to a blue-colored product, formazan. The amount of formazan thus obtained is directly proportional to the amount of live cells present in the culture well(s). This amount of formazan is measured by spectrophotometry.
(§3) The cell lines are maintained in monolayer culture at 37° C. in stoppered culture dishes containing 25 MM HEPES MEM (Minimum Essential Medium) base medium. This medium, which is suitable for growing a range of varied diploid or primary mammalian cells, is then supplemented: […]
(§4) with a an amount of 5% FCS (Fetal Calf Serum) decomplemented at 56° C. for 1 hour, with 0.6 mg/mL of L-glutamine, with 200 IU/mL of penicillin, with […] of streptomycin, with 0.1 mg/mL of gentamicin.
(§5) The 12 human cancer cell lines used were obtained from the American Type Culture Collection (ATCC, Rockville, Md., USA). These 12 cell lines are:
(§6) U-373MG (code ATCC: HTB-17) and U-87MG (code ATCC: HTB-14) which are two glioblastomas, Experimentally: 100 μl of a cell suspension containing 200 000 to 50 000 (depending on the cell type used) cells/mL of culture medium are inoculated in flat-bottomed 96-well multi-well plates and are incubated at 37° C. under an atmosphere comprising 5% CO2 and 70% humidity. […] The intensity of the resulting blue coloration, and thus of the conversion of the yellow MTT product into blue formazan by the cells that are still alive at the end of the experiment is quantified by spectrophotometry using a DYNATECH IMMUNOASSAY SYSTEM machine at wavelengths of 570 nm and 630 nm corresponding, respectively, to the maximum absorption wavelengths of formazan and to the background noise. […]

[2] = tested on: 12 human tumor lines: U-87MG, U-373MG, SW 1088, T24, J82, HCT-15, LoVo, MCF7, T-47D, A549, A-427 and PC-3; assay: MTT cytotoxicity test, panel of the 12 human tumor lines; format: cell-based; conditions: read-out: average IC50
Procedure: as §2, §3, §4, §5
U-373MG (code ATCC: HTB-17) and U-87MG (code ATCC: HTB-14) which are two glioblastomas, SW1088 (code ATCC: HTB-12) which is an astrocytoma, A549 (code ATCC: CCL-185) and A-427 (code ATCC: HTB-53) which are two non-small-cell lung cancers, HCT-15 (code ATCC: CCL-225) and LoVo (code ATCC: CCL-229) which are two colorectal cancers, T-47D (code ATCC: HTB-133) and MCF7 (code ATCC: HTB-22) which are two breast cancers, J82 (code ATCC: HTB-1) and T24 (code ATCC: HTB-4) which are two bladder cancers, PC-3 (code ATCC: CRL-1435) which is a prostate cancer.
Experimentally: 100 μl of a cell suspension containing 200 000 to 50 000 (depending on the cell type used) cells/mL of culture medium are inoculated in flat-bottomed 96-well multi-well plates and are incubated at 37° C. under an atmosphere comprising 5% CO2 and 70% humidity. After incubating for 24 hours, the culture medium is replaced with 100 μl of fresh medium containing either the various test compounds at concentrations ranging from 10^−5 to 10^−10 M or the solvent used to dissolve the test products (control condition). After incubating for 72 hours under the above conditions, the culture medium is replaced with 100 μl of a yellowish solution of MTT dissolved at a rate of 1 mg/mL in RPMI 1640. The microplates are reincubated for 3 hours at 37° C. and then centrifuged for 10 minutes at 400×g. The yellowish solution of MTT is removed and the blue formazan crystals formed at the cellular level are dissolved in 100 μl of DMSO. The microplates are then agitated for 5 minutes. The intensity of the resulting blue coloration, and thus of the conversion of the yellow MTT product into blue formazan by the cells that are still alive at the end of the experiment is quantified by spectrophotometry using a DYNATECH IMMUNOASSAY SYSTEM machine at wavelengths of 570 nm and 630 nm corresponding, respectively, to the maximum absorption wavelengths of formazan and to the background noise. Software built into the spectrophotometer calculates the average optical density values and also the standard deviation (Std. Dev.) and standard error of mean (SEM) values.
The inhibitory activity on the cell growth of the compounds of formula I and of formula II on the different tumor cell lines was compared with that of the natural product meridine (CRL 8348). All of the compounds of formula I and of formula II show significant inhibitory activity on the cell proliferation of the 12 human tumor lines: U-87MG, U-373MG, SW 1088, T24, J82, HCT-15, LoVo, MCF7, T-47D, A549, A-427 and PC-3 with an inhibitory concentration 50 (IC50) which is between 10^−6 M and 10^−10M, depending on the compounds and the tumor lines tested. By way of example, the values of the concentrations flanking the IC50 which are obtained on the various cell lines are given in table II: […]

B6D2F1/Jico mice = assay: Determination of the maximum tolerated dose (MTD); format: in vivo; conditions: single intraperitoneal administration, survival over 14 days
Procedure: as §1

U-87MG = assay: MTT cytotoxicity test, U-87MG; format: cell-based; conditions: Homo sapiens, U-87MG glioblastoma, 72 hours, read-out: concentrations flanking the IC50
Procedure: as §2, §3, §4, §5, §6

MCF7 = assay: MTT cytotoxicity test, MCF7; format: cell-based; conditions: Homo sapiens, MCF7 breast cancer, 72 hours, read-out: concentrations flanking the IC50
Procedure: as §2, §3, §4
The 12 human cancer cell lines used were obtained from the American Type Culture Collection (ATCC, Rockville, Md., USA). These 12 cell lines are: […]

Compound	MTD at 14 days [1] [mg/kg]	further results
Nc1ccnc2c1C(=O)c1c(-c3ccccc3[N+](=O)[O-])ccnc1C2=O [CRL 8300, 6-Amino-4-(2-nitrophenyl)pyrido[3,2-g]quinoline-5,10-dione]	80	
CN(C)c1ccnc2c1-c1nc3ccccc3c3ccnc(c13)C2=O [CRL 8427, 12-Dimethylaminobenzo[b]pyrido[4,3,2-de][1,7]phenanthroline-8-one]	> 160	
O=C1c2nccc(Cl)c2C(=O)c2c(-c3ccccc3[N+](=O)[O-])ccnc21 [CRL 8296, 6-Chloro-4-(2-nitrophenyl)pyrido[3,2-g]quinoline-5,10-dione]	80	
O=C1c2nc(O)ccc2-c2nc3ccccc3c3ccnc1c23 [CRL 8432, 10-Hydroxybenzo[b]pyrido[4,3,2-de][1,7]phenanthroline-8-one]	> 160	
O=C1c2nccc(O)c2-c2nc3ccccc3c3ccnc1c23 [CRL 8348, meridine, reference compound]	> 160	pIC50 (U-373MG): 7.00; pIC50 ([2]; Homo sapiens): 6.77
O=C1c2ncccc2C(=O)c2c(-c3ccccc3NC(=O)C(F)(F)F)ccnc21 [CRL 8277, 4-(2-Trifluoroacetamidophenyl)pyrido[3,2-g]quinoline-5,10-dione]	> 40	pIC50 ([2]; Homo sapiens): 7.90
O=C(O)C(F)(F)F.O=C1c2nccc(Br)c2-c2nc3ccccc3c3ccnc1c23 [CRL 8259, 12-Bromobenzo[b]pyrido[4,3,2-de][1,7]phenanthroline-8-one Trifluoroacetate]	40	
O=C1c2nccc(-c3ccccc3NC(=O)C(F)(F)F)c2C(=O)c2c([N+](=O)[O-])ccnc21 [CRL 8267, 6-Nitro-4-(2-trifluoroacetamidophenyl)pyrido[3,2-g]-quinoline-5,10-dione]	20	
CC(=O)Nc1ccnc2c1C(=O)c1c(-c3ccccc3NC(=O)C(F)(F)F)ccnc1C2=O [CRL 8428, 6-(Acetamido)-4-(2-trifluoroacetamidophenyl)pyrido-[3,2-g]quinoline-5,10-dione]	> 160	
O=C1c2nccc([N+](=O)[O-])c2-c2nc3ccccc3c3ccnc1c23 [CRL 8273, 12-Nitrobenzo[b]pyrido[4,3,2-de][1,7]phenanthroline-8-one]	> 80	
O=C1c2nccc(Cl)c2-c2nc3ccccc3c3ccnc1c23 [CRL 8242, 12-Chlorobenzo[b]pyrido[4,3,2-de][1,7]phenanthroline-8-one]	> 160	
CN(C)c1ccnc2c1C(=O)c1c(-c3ccccc3NC(=O)C(F)(F)F)ccnc1C2=O [CRL 8426, 6-(Dimethylamino)-4-(2-trifluoroacetamidophenyl)pyrido-[3,2-g]quinoline-5,10-dione]	> 160	
cystodamine [reference compound]		MTD (B6D2F1/Jico mice): >160 mg/kg; pIC50 ([2]; calculated from the cytotoxic activity on the 12 tumor lines studied): 7.00
COc1ccnc2c1-c1nc3ccccc3c3ccnc(c13)C2=O [CRL 8276, 12-Methoxybenzo[b]pyrido[4,3,2-de][1,7]phenanthroline-8-one]	80	pIC50 (U-87MG): > 10.00; pIC50 (U-373MG): > 10.00; pIC50 (MCF7): > 10.00; pIC50 ([2]; Homo sapiens): 8.68
O=C(O)C(F)(F)F.O=C1c2nccc([N+](=O)[O-])c2-c2nc3ccccc3c3ccnc1c23 [CRL 8258, 12-Nitrobenzo[b]pyrido[4,3,2-de][1,7]phenanthroline-8-one Trifluoroacetate]	40	
COc1ccnc2c1C(=O)c1c(-c3ccccc3[N+](=O)[O-])ccnc1C2=O [CRL 8243, 6-Methoxy-4-(2-nitrophenyl)pyrido[3,2-g]quinoline-5,10-dione]	> 160	
O=C1c2nc(O)ccc2C(=O)c2c(-c3ccccc3NC(=O)C(F)(F)F)ccnc21 [CRL 8429, 8-Hydroxy-4-(2-trifluoroacetamidophenyl)pyrido[3,2-g]-quinoline-5,10-dione]	40	
O=C1c2nccc(Cl)c2C(=O)c2c(-c3ccccc3NC(=O)C(F)(F)F)ccnc21 [CRL 8250, 6-Chloro-4-(2-trifluoroacetamidophenyl)pyrido[3,2-g]-quinoline-5,10-dione]	20	
